The results in this text go back to ChEMBL document CHEMBL5727776, “Heteroaromatic carboxamide derivatives as plasma kallikrein inhibitors” (2020).

This assay deals with Plasma kallikrein (Homo sapiens, UniProt P03952). Description: Measurements were performed in a kinetic interval every 2nd minute for 16 min using a Spectramax M5 (Molecular Devices) with the following settings of the wavelength excitation of 350 nm and wavelength emission of 450 nm.
Chain of Plasma kallikrein (P03952 20-390 limits assumed): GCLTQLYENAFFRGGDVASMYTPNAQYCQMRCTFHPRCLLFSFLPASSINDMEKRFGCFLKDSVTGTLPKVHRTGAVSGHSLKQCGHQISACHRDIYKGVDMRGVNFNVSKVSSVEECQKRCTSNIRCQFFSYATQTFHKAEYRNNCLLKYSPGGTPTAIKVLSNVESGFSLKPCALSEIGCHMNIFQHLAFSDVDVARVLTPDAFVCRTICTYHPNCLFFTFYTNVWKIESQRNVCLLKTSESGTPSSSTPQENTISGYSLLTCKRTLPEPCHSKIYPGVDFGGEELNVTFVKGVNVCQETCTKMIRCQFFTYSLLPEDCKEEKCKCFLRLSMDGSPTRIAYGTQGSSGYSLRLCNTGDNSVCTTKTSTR
Chain of Plasma kallikrein (P03952 391-638 limits assumed): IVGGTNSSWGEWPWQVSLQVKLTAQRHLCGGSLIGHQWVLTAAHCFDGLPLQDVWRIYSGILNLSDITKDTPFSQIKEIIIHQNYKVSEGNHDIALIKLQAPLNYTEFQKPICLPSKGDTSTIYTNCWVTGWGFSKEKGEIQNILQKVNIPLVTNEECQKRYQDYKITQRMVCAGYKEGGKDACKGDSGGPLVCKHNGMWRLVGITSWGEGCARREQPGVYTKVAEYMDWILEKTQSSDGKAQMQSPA

With `Cc1nc(N2CC3C(C2)C3(F)F)ccc1Cn1cc(C(=O)N[C@@H]2CCc3c(C)n[nH]c32)c(C)n1` (some centres not stated), affinity was put at a Ki of 0.1 nM.
As for `Cc1nc(N2CC3(CC3)C2)ccc1Cn1cc(C(=O)N[C@@H]2CCc3c(C)n[nH]c32)cn1`, the figure is 0.4 nM.

For orientation: Ki means a measure of affinity in units of concentration, obtained from inhibition or displacement. Lower therefore signals a stronger hold on the target.
